Source: patent publication US8377867B2, “Use of epinecidin-1 peptides and anti-lipopolysaccharide factor peptides for treating microbial infection” (Academia Sinica, priority 2009, dated 2013)
Bridge positions count the residues as written; N and C are the ends. Ends that are not written are not given here. Peptide text beside a SMILES is read from it.

Columns and labels:
[1] = system: T. vaginalis cells (ATCC 50148 and T1); assay: Transmission electron microscopy of T. vaginalis morphology; type: cell-based, Trichomonas vaginalis; details: ATCC 50148 and T1 cells, 16 hours, peptide 150-250 (Epinecidin 150 μg/ml, csSALF 250 mg/ml, lsSALF 150 or 200 μg/ml)
Experimental: The T. vaginalis cells mentioned above were also subjected to TEM analysis as described in Pan et al., DNA Cell Biol. 26:403-413 (2007). Briefly, the ATCC 50148 cells (2×10^4) were treated for 16 hours with Epinecidin-122-42 at a concentration of 150 μg/ml, csSALF55-76 at a concentration of […], and 1sSALF122-42 at a concentration of 150 μg/ml; the T1 cells (2×10^4) were treated for 16 hours with Epinecidin-122-42 at a concentration of 150 μg/ml, csSALF55-76 at a concentration of […], and 1sSALF122-42 at a concentration of 200 μg/ml. T. vaginalis cells treated with PBS were used as a control. Morphology of the treated cells was observed using a transmission electron microscope (Hitachi, H-7000, Tokyo, Japan) at 75 kV; see Pan et al., DNA Cell Biol. 26:403-413 (2007).

T. vaginalis cells = assay: EtBr/acridine orange staining of T. vaginalis cells, epifluorescence microscopy; type: cell-based, Trichomonas vaginalis; details: peptide 200 μg/ml co-treated with metronidazole 100 μg/ml, 16 hours
Experimental: T. vaginalis cells (4000 cells/well) were co-treated with metronidazole (100 μg/ml) and Epinecidin-122-42 (200 μg/ml), csSALF55-76 (200 μg/ml), or 1sSALF122-42 (200 μg/ml) for 16 hours. Both metronidazole and the peptides were dissolved in PBS. The T. vaginalis cells were then stained with cold PBS containing 1 μg/ml ethidium bromide (EtBr) and 1 μg/ml acridine orange (AO) for 10 minutes and examined by epifluorescence microscopy.

[2] = system: T. vaginalis cells (ATCC 50148 and T1); assay: T. vaginalis cell viability, trypan blue exclusion assay; type: cell-based, Trichomonas vaginalis
Experimental: Finally, the numbers of viable T. vaginalis cells after peptide treatment were counted following the method described in Ofer et al., Int. J. Parasitol., 38:959-968 (2008). Briefly, cells of ATCC 50148 and T1 were treated with each of the three peptides mentioned above at 25, 50, 100, or 200 μg/ml for 1, 4, and 16 h (overnight), then the viability was analyzed. Cell viability was then determined by the conventional trypan blue exclusion assay. […] More than 60% T1 cells died after being treated with this peptide at a concentration of 50 μg/ml for one hour.

[3] = system: T. vaginalis cells (ATCC 50148 and T1); assay: Scanning electron microscopy of T. vaginalis morphology; type: cell-based, Trichomonas vaginalis; details: ATCC 50148 and T1 cells, peptide 100 or 200 μg/ml, 1, 4 and 16 hours
Experimental: The effect of the three peptides on morphology of T. vaginalis cells was examined by scanning electron microscopy (SEM) and transmission electron microscopy (TEM) as follows. Cells of the ATCC 50148 and T1 strains were cultured in a 96-well cell culture plate (1×10^4 cells/well). The ATCC 50148 cells were treated with Epinecidin-122-42 (100 μg/ml), csSALF55-76 (100 μg/ml), or 1sSALF122-42 (200 μg/ml) for 1, 4, and 16 hours and the T1 cells were treated with Epinecidin-122-42 (100 μg/ml), csSALF55-76 (200 μg/ml), or 1sSALF122-42 (100 μg/ml) for the same periods. T. vaginalis cells treated with PBS were used as a control. The treated cells were then analyzed by SEM. […] A large amount of cell debris was also observed in the peptide-treated cells.

[4] = system: Propionibacterium acnes (BCRC #10723); assay: SEM and TEM of P. acnes morphology; type: cell-based; details: P. acnes BCRC #10723, peptide 100 μg/ml in PBS
Experimental: The effect of Epinecidin-122-42 on P. acnes morphology was examined by SEM and TEM as follows. BCRC #10723 cells were seeded in a 6-well plate (1×10^4 cells per well), cultured for a sufficient period, collected by centrifugation, and re-suspended in PBS to reach an OD550 value of 1.0. The bacterial suspension was mixed with a freshly prepared PBS solution containing the peptide at a concentration of 100 μg/ml or PBS as a control.

[5] = system: C. albicans strain BCRC #20511; type: cell-based, Candida albicans
Experimental: Cells of C. albicans strain BCRC #20511 were cultured following the protocol provided by BCRC. These cells were treated with peptide Epinecidin-122-42 at various concentrations and their growth inhibition was examined following the method disclosed in Pan et al., Int. Immunopharmacol. 7:687-700 (2007).

[6] = system: C. albicans strain BCRC #20511; assay: SEM and TEM of C. albicans morphology; type: cell-based, Candida albicans; details: C. albicans BCRC #20511, peptide 50 μg/ml
Experimental: The effect of Epinecidin-122-42 (50 μg/ml) on C. albicans cell morphology was analyzed by SEM and TEM following the methods mentioned above.

[7] = system: Propionibacterium acnes (BCRC #10723); type: cell-based
Experimental: Propionibacterium acnes (BCRC #10723) cells were cultured under the conditions recommended by Bioresource Collection and Research Centre (BCRC) in Taiwan (see bcrc.firdi,org.tw:819/bcrc/indexe.htm). Their growth inhibition by Epinecidin-122-42 was determined following the method described in Pan et al., DNA Cell Biol. 26:403-413 (2007). The minimum inhibitory concentration of this peptide against P. acnes was 200 μg/ml.

[8] = ATCC 50148 cells, 50 μg/ml, four hours

| Compound | Cell morphology by TEM [1] | Effect on cellular and nuclear membranes (EtBr/AO red color in nuclei) (T. vaginalis cells) | Cells died after treatment [2, 8] | Cells died after treatment ([2]; T1 cells, 25 μg/ml, 16 hours) | Cell morphology by SEM [3] | Viable cells after treatment ([2]; ATCC 50148 cells, 25 μg/ml, one hour) | Viable cells after treatment ([2]; T1 cells, 25 μg/ml, four hours) | Cells died after treatment ([2]; T1 cells, 50 μg/ml, one hour) | Cell morphology by SEM and TEM [4] | Cell growth inhibition ([5]; C. albicans BCRC #20511, various concentrations) | Minimum inhibitory concentration ([5]; strain BCRC #20511) [µg/mL] | Cell morphology by SEM and TEM [6] | Minimum inhibitory concentration [7] [µg/mL] |
| --- | --- | --- | --- | --- | --- | --- | --- | --- | --- | --- | --- | --- | --- |
| CSCC[C@@H]1NC(=O)[C@H](CCCNC(=N)N)NC(=O)CNC(=O)[C@H](CCCCN)NC(=O)[C@H](Cc2ccc(O)cc2)NC(=O)[C@H](Cc2ccc(O)cc2)NC(=O)[C@H](C(C)C)NC(=O)[C@H](CCC(N)=O)NC(=O)[C@H](Cc2ccccc2)NC(=O)[C@H](CCCNC(=N)N)NC(=O)[C@H](CCCCN)NC(=O)[C@H](CC(C)C)NC(=O)[C@H](Cc2ccc(O)cc2)NC(=O)[C@@H]2CCCN2C(=O)[C@H](CCCCN)NC(=O)[C@H](C(C)C)NC(=O)[C@H]([C@@H](C)O)NC(=O)[C@H](Cc2ccccc2)NC(=O)[C@H](CCCCN)NC(=O)[C@@H](NC(=O)[C@H](CCC(=O)O)NC(C)=O)CSSC[C@@H](C(=O)N2CCC[C@H]2C(N)=O)NC(=O)[C@H](Cc2c[nH]c3ccccc23)NC1=O [cs-SALF55-76] (Ac-ECKFTVKPYLKRFQVYYKGRMWCP-NH2; disulfide 2-23; N-terminus and C-terminus assumed) | significantly disrupted the intact structure | destroyed the cellular and nuclear membranes | most ATCC 50148 cells died | most T1 cells died | damaged cell membranes and distorted cell shape | – | – | – | – | – | – | – | – |
| CSCC[C@H](NC(=O)[C@H](CCCNC(=N)N)NC(=O)CNC(=O)[C@H](CCCCN)NC(=O)[C@H](Cc1ccc(O)cc1)NC(=O)[C@H](Cc1ccc(O)cc1)NC(=O)[C@@H](NC(=O)[C@H](CCC(N)=O)NC(=O)[C@H](Cc1ccccc1)NC(=O)[C@H](CCCNC(=N)N)NC(=O)[C@H](CCCCN)NC(=O)[C@H](CC(C)C)NC(=O)[C@H](Cc1ccc(O)cc1)NC(=O)[C@@H]1CCCN1C(=O)[C@H](CCCCN)NC(=O)[C@@H](NC(=O)[C@@H](NC(=O)[C@H](Cc1ccccc1)NC(=O)[C@H](CCCCN)NC(=O)[C@H](CS)NC(=O)[C@@H](N)CCC(=O)O)[C@@H](C)O)C(C)C)C(C)C)C(=O)N[C@@H](Cc1c[nH]c2ccccc12)C(=O)N[C@@H](CS)C(=O)N1CCC[C@H]1C(=O)O [ls-SALF55-76] (H-ECKFTVKPYLKRFQVYYKGRMWCP-OH; N-terminus and C-terminus assumed) | significantly disrupted the intact structure | destroyed the cellular and nuclear membranes | most ATCC 50148 cells died | most T1 cells died | damaged cell membranes and distorted cell shape | – | – | – | – | – | – | – | – |
| GFIFHIIKGLFHAGKMIHGLV-NH2 [Epinecidin-122-42] | significantly disrupted the intact structure | destroyed the cellular and nuclear membranes | – | – | damaged cell membranes and distorted cell shape | No viable cells | No viable cells | More than 60% | destroyed the outer membranes of P. acnes cells | significantly inhibited C. albicans cell growth | 25 | irregular shape and disrupted outer/intracellular membranes | 200 |
